The values that follow come from US7632863B2, “3,4,5,4′-tetramethoxyl-α,β-diphenylethane-3′-O-sodium sulphate and its use” (The Jian Cell Biomedical Research Co., Ltd., priority 2007, dated 2009).

Data set [1] deals with S180 sarcoma. The note with it: Dosage 1 mg/kg, i.v., S180 sarcoma-bearing mice. The text has this: (§1) (1) Sample: 3,4,5,4′-tetramethoxyl-α,β-diphenylethane-3′-O-sodium sulphate (AS) provided by Zhejiang Cell Biomedical Research Co., Ltd., and prepared by the process in Example One. Dissolved by physiological saline for the concentration needed.
(2) Control product: Cyclophosphamide for injection (CTX), Jiangsu Hengrui Pharmaceutical Inc. Co. Batch No.: 04123021 Dissolved by physiological saline for preparation.
(§2) (1) KM mouse bearing S180 sarcoma.
(2) 50 KM mice, female, weighting 18-22 g, provided by Zhejing College of Traditional Chinese Medicine.
(1) Drawing ascites under aseptic condition from mouse bearing S180 sarcoma, diluting with physiologic saline 1:3, giving subcutaneous inoculation in the armpit of the right forelimb of the KM mice with 0.2 ml each; dividing the mice into 5 groups randomly the next day, 10 in each group.
(§3) (2) Administering drug to the mice by weight the third day of inoculation, intravenous administration 0.5 ml/20 g […], by weight, and putting them to death on the 11th day after inoculation, weighing the tumor and calculating the rate of tumor inhibition.
(§4) (3) dosage (mg/kg/d) and means of administration:
(§5) AS: 50 mg/kg, tail vein injection
(§6) AS: 100 mg/kg, tail vein injection
(§7) AS: 200 mg/kg, tail vein injection
(§8) CTX: 30 mg/kg, tail vein injection
(§9) Setting up another blank control group, tail vein injection of 0.9% NaCl 0.5 ml.
(§10) (4) Judging the result with the following formula: […]

Data set [2] deals with S180 sarcoma. The following applies: i.v., S180 sarcoma-bearing mice.
Source text: as §1
(2) Cisplatin: Cisplatin for injection (DDP), Qilu Pharmaceutical Co., Ltd. Batch No.: 5120282DC. Dissolved by physiological saline for preparation.
(3) Control product: Cyclophosphamide for injection (CTX), Jiangsu Hengrui Pharmaceutical Inc. Co. Batch No.: 04123021 Dissolved by physiological saline for preparation.
as §2
(2) 70 KM mice, female, weighting 18-22 g, provided by Zhejing College of Traditional Chinese Medicine.
(1) Drawing ascites under aseptic condition from mouse bearing S180 sarcoma, diluting with physiologic saline 1:3, giving subcutaneous inoculation in the armpit of the right forelimb of the KM mice with 0.2 ml each; dividing the mice into 7 groups randomly the next day, 10 in each group.
as §3, §4, §5, §6, §7
DDP: 1 mg/kg, tail vein injection
AS+DDP: 50 mg/kg+1 mg/kg, tail vein injection
as §8, §9, §10

Data set [3] concerns Lewis lung cancer. In words: Joint administration of AS and DDP, murine model of Lewis lung cancer (Example Five). The class given is in vivo, C57BL/6J mice. The note with it: mice bearing Lewis lung cancer.
Source text: (1) Sample: 3,4,5,4′-tetramethoxyl-α,β-diphenylethane-3′-O-sodium sulphate (AS), raw material medicine, provided by Zhejiang Cell Biomedical Research Co., Ltd., and prepared by the process in Example One. Batch No.: 061025. Dissolved by physiological saline for the concentration needed.
(2) Cisplatin: Cisplatin for injection (DDP), Qilu Pharmaceutical Co., Ltd. Batch No.: 5120282DC; Dissolved by physiological saline for preparation
(3) Control product: Cyclophosphamide for injection (CTX), Jiangsu Hengrui Pharmaceutical Inc. Co. Batch No.: 04123021. Dissolved by physiological saline for preparation.
(1) C57BL/6J mouse bearing Lewis lung cancer
(2) 70 C57BL/6J mice, female, weighing 17-21 g. Provided by the animal house of Zhejiang Cell Biomedical Research Co., Ltd.
(1) Taking tumor from C57BL/6J mouse under aseptic condition, grinding and diluting it by physiological saline 1:3 (weight:volume), and giving hypodermic inoculation 0.2 ml per mouse in the armpit of the right forelimb of each mouse. dividing the mice into 7 groups randomly the next day, 10 in each group.
(2) After inoculation, waiting till the tumor has grown to the accessible size, administering medicine according to body weight, 0.5 ml/20 g intravenous, for 11 days, putting the mice to death on the 19th after inoculation, taking out and weighing the tumor, and calculating the tumor inhibiting rate.
as §10

The conditions of data set [4]: background statement, species and route not given; cited from earlier work.

Where two headings read alike, the source gives them in different places.

As a reminder, the LD50 is the dose at which mortality reaches 50%.

For `O=P1(N(CCCl)CCCl)NCCCO1` (stereo not drawn) [CTX, Cyclophosphamide, reference compound], in data set [1], the 0 d weight worked out at 21.18 ± 0.64 g, the “11 d weight without tumor” value was found to be 26.28 ± 1.72 g, the “Tumor inhibiting rate %” value amounted to 69% and the Tumor weight came out at 0.90 ± 0.26 g. In addition, in data set [2] (Dosage 1 mg/kg), the 0 d weight is given as 21.18 ± 0.64 g, the “11 d weight without tumor” value came out at 26.28 ± 1.72 g, the “Tumor inhibiting rate %” value is given as 69% and the Tumor weight is given as 0.90 ± 0.26 g. For the same compound, in data set [3] (Dosage 30 mg/kg, i.p.), the “Tumor inhibiting rate %” value is recorded as 64.3% and the Tumor weight is reported as 1.68 ± 0.15 g.
Turning to `N.N.[Cl][Pt][Cl]` [DDP, Cisplatin, reference compound], in data set [2] (Dosage 30 mg/kg), the “Tumor inhibiting rate %” value came out at 70% and the Tumor weight is 0.88 ± 0.50 g. In addition, in data set [3] (Dosage 1 mg/kg, i.v.), the “Tumor inhibiting rate %” value is 46.4% and the Tumor weight was determined as 2.52 ± 0.80 g.
`COc1ccc(/C=C\c2cc(OC)c(OC)c(OC)c2)cc1O` [Combretastatin A-4]: the LD50 in data set [4] is listed as 500 mg/kg.
